Test results: the CheMixHub viscosity set

Assay: xn = mol fraction of the nth substance listed

CN1CCCC1=O + O
Conditions | viscosity [mPa·s]
293.15 K, 101 kPa, x1 = 0.6997 | 2.865
298.15 K, 101 kPa, x1 = 0.02 | 1.2
298.15 K, 101 kPa, x1 = 0.0505 | 1.809
298.15 K, 101 kPa, x1 = 0.0985 | 2.79
298.15 K, 101 kPa, x1 = 0.0997 | 2.778
298.15 K, 101 kPa, x1 = 0.1202 | 3.198
298.15 K, 101 kPa, x1 = 0.1503 | 3.914
298.15 K, 101 kPa, x1 = 0.1702 | 4.125
298.15 K, 101 kPa, x1 = 0.1881 | 4.44
298.15 K, 101 kPa, x1 = 0.1999 | 4.578
298.15 K, 101 kPa, x1 = 0.2205 | 4.804
298.15 K, 101 kPa, x1 = 0.2496 | 5.035
298.15 K, 101 kPa, x1 = 0.2697 | 5.12
298.15 K, 101 kPa, x1 = 0.2937 | 5.154
298.15 K, 101 kPa, x1 = 0.3053 | 5.1
298.15 K, 101 kPa, x1 = 0.3496 | 5.006
298.15 K, 101 kPa, x1 = 0.3959 | 4.59
298.15 K, 101 kPa, x1 = 0.3999 | 4.679
298.15 K, 101 kPa, x1 = 0.45 | 4.31
298.15 K, 101 kPa, x1 = 0.4954 | 3.77
298.15 K, 101 kPa, x1 = 0.4999 | 3.909
298.15 K, 101 kPa, x1 = 0.5941 | 3.07
298.15 K, 101 kPa, x1 = 0.6002 | 3.214
298.15 K, 101 kPa, x1 = 0.6917 | 2.55
298.15 K, 101 kPa, x1 = 0.7 | 2.676
298.15 K, 101 kPa, x1 = 0.786 | 2.18
298.15 K, 101 kPa, x1 = 0.7997 | 2.299
298.15 K, 101 kPa, x1 = 0.8859 | 1.9
298.15 K, 101 kPa, x1 = 0.8962 | 2.023
298.15 K, 101 kPa, x1 = 0.9498 | 1.908
298.15 K, 101.15 kPa, x1 = 0.0501 | 1.74
298.15 K, 101.15 kPa, x1 = 0.0701 | 2.137
298.15 K, 101.15 kPa, x1 = 0.1001 | 2.762
298.15 K, 101.15 kPa, x1 = 0.2004 | 4.555
298.15 K, 101.15 kPa, x1 = 0.3004 | 5.062
298.15 K, 101.15 kPa, x1 = 0.4012 | 4.505
298.15 K, 101.15 kPa, x1 = 0.503 | 3.729
298.15 K, 101.15 kPa, x1 = 0.5937 | 3.075
298.15 K, 101.15 kPa, x1 = 0.7023 | 2.503
298.15 K, 101.15 kPa, x1 = 0.9006 | 1.836
298.16 K, 101 kPa, x2 = 0.0836 | 1.84
298.16 K, 101 kPa, x2 = 0.1794 | 2.14
298.16 K, 101 kPa, x2 = 0.3006 | 2.72
298.16 K, 101 kPa, x2 = 0.4221 | 3.52
298.16 K, 101 kPa, x2 = 0.5466 | 4.45
298.16 K, 101 kPa, x2 = 0.6595 | 5.05
298.16 K, 101 kPa, x2 = 0.6861 | 5.04
298.16 K, 101 kPa, x2 = 0.7608 | 4.66
298.16 K, 101 kPa, x2 = 0.7976 | 4.23
298.16 K, 101 kPa, x2 = 0.8599 | 3.2
303.15 K, 101 kPa, x1 = 0.3001 | 4.365
303.15 K, 101 kPa, x1 = 0.899 | 1.705
308.15 K, 101 kPa, x1 = 0.02 | 0.9403
308.15 K, 101 kPa, x1 = 0.0505 | 1.375
308.15 K, 101 kPa, x1 = 0.1202 | 2.303
308.15 K, 101 kPa, x1 = 0.1702 | 2.895
308.15 K, 101 kPa, x1 = 0.1999 | 3.179
308.15 K, 101 kPa, x1 = 0.2205 | 3.323
308.15 K, 101 kPa, x1 = 0.2496 | 3.478
308.15 K, 101 kPa, x1 = 0.2697 | 3.539
308.15 K, 101 kPa, x1 = 0.2937 | 3.574
308.15 K, 101 kPa, x1 = 0.3202 | 3.591
308.15 K, 101 kPa, x1 = 0.3496 | 3.518
308.15 K, 101 kPa, x1 = 0.3999 | 3.351
308.15 K, 101 kPa, x1 = 0.45 | 3.147
308.15 K, 101 kPa, x1 = 0.4999 | 2.912
308.15 K, 101 kPa, x1 = 0.6002 | 2.487
308.15 K, 101 kPa, x1 = 0.7 | 2.138
308.15 K, 101 kPa, x1 = 0.7997 | 1.883
308.15 K, 101 kPa, x1 = 0.8962 | 1.691
313.15 K, 101.15 kPa, x1 = 0.0501 | 1.178
313.15 K, 101.15 kPa, x1 = 0.0701 | 1.402
313.15 K, 101.15 kPa, x1 = 0.1001 | 1.744
313.15 K, 101.15 kPa, x1 = 0.2004 | 2.684
313.15 K, 101.15 kPa, x1 = 0.3004 | 2.975
313.15 K, 101.15 kPa, x1 = 0.4012 | 2.777
313.15 K, 101.15 kPa, x1 = 0.503 | 2.44
313.15 K, 101.15 kPa, x1 = 0.5937 | 2.125
313.15 K, 101.15 kPa, x1 = 0.7023 | 1.818
313.15 K, 101.15 kPa, x1 = 0.8066 | 1.585
313.15 K, 101.15 kPa, x1 = 0.9006 | 1.43
318.15 K, 101 kPa, x1 = 0.0997 | 1.548
318.15 K, 101 kPa, x1 = 0.1202 | 1.73
318.15 K, 101 kPa, x1 = 0.1503 | 2.039
318.15 K, 101 kPa, x1 = 0.1702 | 2.13
318.15 K, 101 kPa, x1 = 0.1999 | 2.32
318.15 K, 101 kPa, x1 = 0.2205 | 2.417
318.15 K, 101 kPa, x1 = 0.2496 | 2.527
318.15 K, 101 kPa, x1 = 0.2697 | 2.572
318.15 K, 101 kPa, x1 = 0.2937 | 2.603
318.15 K, 101 kPa, x1 = 0.3202 | 2.623
318.15 K, 101 kPa, x1 = 0.3496 | 2.589
318.15 K, 101 kPa, x1 = 0.3999 | 2.503
318.15 K, 101 kPa, x1 = 0.45 | 2.387
318.15 K, 101 kPa, x1 = 0.4999 | 2.245
318.15 K, 101 kPa, x1 = 0.6002 | 1.977
318.15 K, 101 kPa, x1 = 0.7997 | 1.571
318.15 K, 101 kPa, x1 = 0.9498 | 1.375
323.15 K, 101 kPa, x1 = 0.6997 | 1.485
323.15 K, 101.15 kPa, x1 = 0.0501 | 0.942
323.15 K, 101.15 kPa, x1 = 0.0701 | 1.106
323.15 K, 101.15 kPa, x1 = 0.2004 | 1.995
323.15 K, 101.15 kPa, x1 = 0.4012 | 2.116
323.15 K, 101.15 kPa, x1 = 0.503 | 1.935
323.15 K, 101.15 kPa, x1 = 0.7023 | 1.509
323.15 K, 101.15 kPa, x1 = 0.8066 | 1.343
